According to patent US6734186B1, “Compounds for the treatment of female sexual dysfunction” (Pfizer Inc., priority 1999, dated 2004):
Each block holds one compound with its values, some of them ahead of it.

Key:
[1] = test system: anaesthetised rabbit model of sexual arousal; experiment: Enhancement of VIP-induced increases in vaginal blood flow, anaesthetised rabbit model; assay type: in vivo; conditions: for effect on VIP-induced increases in vaginal blood flow: at clinically relevant doses
From the text: (§1) A ventral midline incision was made, at the caudal end of the pubis, to expose the pubic area. Connective tissue was removed to expose the tunica of the clitoris, ensuring that the wall was free from small blood vessels. The external vaginal wall was also exposed by removing any connective tissue. One laser Doppler flow probe was inserted 3 cm into the vagina, so that half the probe shaft was still visible. A second probe was positioned so that it lay just above the external clitoral wall. The position of these probes was then adjusted until a signal was obtained. A second probe was placed just above the surface of a blood vessel on the external vaginal wall. Both probes were clamped in position.
(§2) Vaginal and clitoral blood flow was recorded either as numbers directly from the Flowmeter using Po-ne-mah data acquisition software (Ponemah Physiology Platform, Gould Instrument Systems Inc), or indirectly from Gould chart recorder trace. Calibration was set at the beginning of the experiment (0-125 ml/min/100 g tissue).
An initial infusion of Hepsaline (50UI/ml) was infused to act as a negative control.
(§3) NEP (Neutral Endopeptidase EC3.4.24.11; Sequence No. 1) inhibitors, phosphodiesterase type 5 (PDE5) inhibitors and NPY Y1 antagonists were made up in saline or 5% glucose solution (200 μl 50% glucose in 1.8 ml water for injection). PDEcAMP inhibitors were dissolved in a 40% ethanol solution (200 μl 50% glucose in 1.8 ml water/ethanol for injection).

[2] = test system: anaesthetised rabbit model of sexual arousal; experiment: Enhancement of pelvic nerve stimulated (PNS) increases in vaginal blood flow, anaesthetised rabbit model; assay type: in vivo; conditions: for effect on pelvic nerve stimulated increases in vaginal blood flow: at clinically relevant doses
From the text: (§4) A ventral midline incision was made into the abdominal cavity. The incision was about 5 cm in length just above the pubis. The fat and muscle was bluntly dissected away to reveal the hypogastric nerve which runs down the body cavity. It was essential to keep close to the side curve of the pubis wall in order to avoid damaging the femoral vein and artery which lie above the pubis. The sciatic and pelvic nerves lie deeper and were located after further dissection on the dorsal side of the rabbit. Once the sciatic nerve is identified, the pelvic nerve was easily located. The term pelvic nerve is loosely applied; anatomy books on the subject fail to identify the nerves in sufficient detail. However, stimulation of the nerve causes an increase in vaginal and clitoral blood flow, and innervation of the pelvic region. The pelvic nerve was freed away from surrounding tissue and a Harvard bipolar stimulating electrode was placed around the nerve. The nerve was slightly lifted to give some tension, then the electrode was secured in position. Approximately 1 ml of light paraffin oil was placed around the nerve and electrode. This acts as a protective lubricant to the nerve and prevents blood contamination of the electrode. The electrode was connected to a Grass S88 Stimulator. The pelvic nerve was stimulated using the following parameters: −5V, pulse width 0.5 ms, duration of stimulus 10 seconds and a frequency range of 2 to 16 Hz. Reproducible responses were obtained when the nerve was stimulated every 15-20 minutes.
(§5) A frequency response curve was determined at the start of each experiment in order to determine the optimum frequency to use as a sub-maximal response, normally 4 Hz. The compound(s) to be tested were infused, via the femoral vein, using a Harvard 22 infusion pump allowing a continuous 15 minute stimulation cycle.
as §1, §2, §3

isolated rabbit vagina [3] = experiment: Enhancement of VIP-induced relaxation of precontracted isolated rabbit vagina by test agents; assay type: cell-based; conditions: for Percentage enhancement of VIP(Sequence No. 8)-induced relaxation: PDE inhibitor at selective dose, isolated rabbit vagina, 1 μM phenylephrine; for effect on VIP-induced and nerve-mediated relaxations of isolated tissue: at clinically relevant doses
Method: (§6) 3.7 (a). Rabbit vagina in vitro preparation:—Female New Zealand white rabbits (2.0-3.0 kg) were killed by cervical dislocation. The abdominal cavity was opened and the vagina excised. Tissue strips were mounted longitudinally in Wesley Co. 5 ml silanised organ chambers with braided silk sutures (6/0 gauge) at an initial resting tension of 1.5 g in Krebs bicarbonate buffer maintained at 37° C. and gassed with 95%O2/5%CO2. The upper ligature of each tissue strip was attached to a 10 g capacity force-displacement transducer and changes in isometric force were measured and recorded using a DART in vitro data capture system. Tissues were allowed to equilibrate for 1.5 hours and were regularly washed with Krebs.
(§7) Each tissue was contracted using 1 μM bath concentration of phenylephrine. […] Tissues then received either a test agent (eg NEP or PDE inhibitor) or DMSO vehicle (time matched control).
(§8) For the purpose of curve fitting the minimum relaxation response was constrained to 0% and the maximum relaxation response was allowed to free fit.

[4] = test system: anaesthetised rabbit model of sexual arousal; experiment: Enhancement of pelvic nerve stimulated increases in clitoral blood flow, anaesthetised rabbit model; assay type: in vivo
From the text: as §4
as §5, with “cycle. […]” for “cycle.”
Vaginal and clitoral blood flow was recorded either as numbers directly from the Flowmeter using Po-ne-mah data acquisition software (Ponemah Physiology Platform, Gould Instrument Systems Inc), or indirectly from Gould chart recorder trace. […]

isolated rabbit vagina [5] = experiment: Electrical field stimulated (EFS) relaxation of isolated rabbit vagina; assay type: cell-based
Method: Rabbit vaginal strips were prepared as described in Section 3.7 (a). The tissue strips were mounted between two platinum electrodes placed at the top and bottom of the organ chamber approximately 4 cm apart. Each tissue was contracted using 1 μM bath concentration of phenylephrine. When the contractile response reached a stable plateau (15 minutes), the tissues underwent a pre-treatment electrical field stimulated (EFS) induced relaxation curve. This was performed between 40-60 volts using sequential frequencies of 2, 4, 8 and 16 Hz delivered as 10 second trains of 0.5 milli second pulse width. The tissues were allowed to return to base line pre-contractile tension between each frequency (5 minutes) and the size of the relaxation response recorded.
After completion of the pre-treatment EFS response curve, all tissues were washed for 15 minutes, allowing the tissues to return to the baseline tension. Tissues then received either a test agent (eg NEP or PDE inhibitor, nitric oxide synthase [NOS] inhibitor) or DMSO vehicle (time matched control). Tissues were re-contracted with phenylephrine (1 μM) 15 minutes after the addition of compound or vehicle and an EFS-induced relaxation response curve determined as described above. […]

[6] = test system: anaesthetised rabbit model of sexual arousal; experiment: Increase in clitoral blood flow after iv infusion of vasoactive agents, anaesthetised rabbit model; assay type: in vivo; conditions: forskolin 40 nmol/kg iv
From the text: as §1, §2

isolated rabbit vagina [7] = experiment: Relaxation of precontracted (1 μM phenylephrine) isolated rabbit vaginal strips; assay type: cell-based; conditions: Oryctolagus cuniculus, precontracted with 1 μM phenylephrine
Method: as §6, §7, §8

potentiation of VIP EC50 values (isolated rabbit vagina [3]; inhibitor at 8 nM): 130%
SMILES: COc1ccc(Cc2nc3c(ncn3C(CCCc3ccccc3)C(C)=O)c(=O)[nH]2)cc1OC (centres unmarked) [FII, 9-(1-acetyl-4-phenylbutyl)-2-[(3,4-dimethoxyphenyl)methyl]-1,9-dihydro-6H-purin-6-one]
enhancement of peak increase in blood flow induced by VIP-stimulation ([1]; 200 μg/kg): circa 15±3% | enhancement of duration of VIP-induced increases in peak vaginal blood flow ([1]; VIP 60 μg/kg, measured at 50% amplitude): over 100% | effect on VIP-induced increases in vaginal blood flow [1]: enhances | effect on VIP-induced enhanced vaginal blood flow ([1]; inhibitor 25 μg/kg iv bolus, VIP 60 μg/kg iv bolus): potentiates the duration | enhancement of peak increase in blood flow induced by pelvic nerve stimulation ([2]; 200 μg/kg, 4 Hz): circa 15±3% | enhancement of peak increase in PNS vaginal blood flow ([2]; 500 μg/kg iv, 4 Hz): 86.8±21.9% | effect on pelvic nerve stimulated increases in vaginal blood flow [2]: enhances | Percentage enhancement of VIP(Sequence No. 8)-induced relaxation (isolated rabbit vagina [3]): 130%

potentiation of VIP EC50 values (isolated rabbit vagina [3]; inhibitor at 3.4 μM): 220%
SMILES: Cc1nc(O)c(C#N)cc1-c1ccncc1 [FIII, Milrinone]
Percentage enhancement of VIP(Sequence No. 8)-induced relaxation (isolated rabbit vagina [3]): 220%

potentiation of VIP EC50 values (isolated rabbit vagina [3]; inhibitor at 686 nM): 160%
SMILES: COc1ccc(C2CNC(=O)C2)cc1OC1CCCC1 (centres unmarked) [FIV, Rolipram]
Percentage enhancement of VIP(Sequence No. 8)-induced relaxation (isolated rabbit vagina [3]): 160%

SMILES: C=CCC(CC1(C(=O)NC2CCCC(C(=O)OCC)C2)CCCC1)C(=O)O (centres unmarked) [FV, cyclohexanecarboxylic acid, 3-[[[1-(2-carboxy-4-pentenyl)cyclopentyl]carbonyl]amino]-,1-ethyl ester]
effect on VIP-induced increases in vaginal blood flow [1]: enhance | effect on pelvic nerve stimulated increases in vaginal blood flow [2]: enhance | effect on VIP-induced and nerve-mediated relaxations of isolated tissue (isolated rabbit vagina [3]): enhance

SMILES: C=CCC(CC1(C(=O)NC2CCCC(C(=O)O)C2)CCCC1)C(=O)O (centres unmarked) [FVI, cyclohexanecarboxylic acid, 3-[[[1-(2-carboxy-4-pentenyl)cyclopentyl]carbonyl]amino]-]
enhancement of peak increase in PNS clitoral blood flow ([4]; 1.0 mg/kg iv, 4 Hz): 131% | maximal enhancement of peak increase in PNS clitoral blood flow (up to) ([4]; compared to vehicle control increases): up to 131% | effect on basal (unstimulated) clitoral blood flow ([4]; no pelvic nerve stimulation): no effect | increase in duration of VIP-induced elevation of vaginal blood flow ([1]; VIP dose producing maximal flow increases): circa 80% | duration of VIP-induced elevation in presence of inhibitor ([1]; VIP dose producing maximal flow increases, 11 minutes without inhibitor): 20 min | effect on VIP-induced increases in vaginal blood flow [1]: enhance | effect on VIP-induced enhanced vaginal blood flow ([1]; maximal VIP 60 μg/kg): only potentiate the duration | effect on VIP-induced enhanced vaginal blood flow ([1]; submaximal VIP 6.0 μg/kg): both potentiates the amplitude and prolongs the duration | potentiation of peak VIP-induced increase in vaginal blood flow ([1]; submaximal VIP 6.0 μg/kg): 95±6% | prolongation of duration of VIP-induced increase in vaginal blood flow ([1]; submaximal VIP 6.0 μg/kg): circa 140% | duration of VIP-induced increase in presence of inhibitor ([1]; submaximal VIP 6.0 μg/kg, 7 minutes without inhibitor): > 17 min | enhancement of peak increase in PNS vaginal blood flow ([2]; 0.1 mg/kg iv, submaximal stimulation 4 Hz): 35.0±7.6% | enhancement of peak increase in PNS vaginal blood flow ([2]; 0.3 mg/kg iv, submaximal stimulation 4 Hz, listed as NEP inhibitor): 40% | effect on pelvic nerve stimulated increases in vaginal blood flow [2]: enhance | maximal enhancement of peak increase in PNS vaginal blood flow (up to) ([2]; compared to time matched control increases): up to 53% | effect on basal (unstimulated) vaginal blood flow ([2]; no pelvic nerve stimulation): no effect | effect on non-nitric oxide NANC relaxation induced by EFS (isolated rabbit vagina [5]; 1 μM): enhances | effect on VIP-induced and nerve-mediated relaxations of isolated tissue (isolated rabbit vagina [3]): enhance

SMILES: NC(=NCCC[C@H](N)C(=O)O)N[N+](=O)[O-] [L-NOARG]
inhibition of EFS-induced relaxations (isolated rabbit vagina [5]; 300 μM): 50%

IC50 (isolated rabbit vagina [7]; FIG. 4c): ~300 nM | EC50 (isolated rabbit vagina [7]; read-out: EC50 for relaxation in isolated vaginal tissue): 320 ± 20 nM
SMILES: C=C[C@@]1(C)CC(=O)[C@]2(O)[C@@]3(C)[C@@H](O)CCC(C)(C)[C@@H]3[C@H](O)[C@H](OC(C)=O)[C@@]2(C)O1 [forskolin]
increase in clitoral blood flow [6]: 156%
